The source of these data is patent US20260022142A1, “MACROCYCLIC IMMUNOMODULATORS” (Bristol-Myers Squibb Company, priority 2022, published 2026).

pIC50: −log10 of the molar value. Bridge positions count the residues as written; N and C are the ends. Square brackets hold non-standard residues; d marks the D form. Peptide text beside a SMILES is read from it. * marks the point of attachment. Bip = N[C@@H](Cc1ccc(-c2ccccc2)cc1)C(=O)O; 4Pal = N[C@@H](Cc1ccncc1)C(=O)O; Carboxymethyl = O=C(O)C*; Orn = NCCC[C@H](N)C(=O)O; Pra = C#CC[C@H](N)C(=O)O; Aun = NCCCCCCCCCCC(=O)O; Dab = NCC[C@H](N)C(=O)O; Dap = NC[C@H](N)C(=O)O; AEEA = NCCOCCOCC(=O)O

The target of the test is T1, PD-1/PD-L1 interaction (PE-labeled human PD-L1-Ig binding to Jurkat cell line over-expressing human PD-1) (Homo sapiens, UniProt Q15116).
T1 construct: expressed in transfected cells; host or cells: Jurkat
T1 sequence (Q15116 25-288): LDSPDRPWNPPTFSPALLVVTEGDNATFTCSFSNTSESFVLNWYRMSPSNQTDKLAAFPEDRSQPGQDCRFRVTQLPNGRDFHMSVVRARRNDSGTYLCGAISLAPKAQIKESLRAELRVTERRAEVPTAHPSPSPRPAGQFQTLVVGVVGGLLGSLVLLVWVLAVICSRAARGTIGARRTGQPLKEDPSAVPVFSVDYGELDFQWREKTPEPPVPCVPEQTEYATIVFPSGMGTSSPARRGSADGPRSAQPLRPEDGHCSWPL
Description: Jurkat-PD-1 Cell Binding High-Content Screening Assay (CBA). The test is classed as cell-based. The following applies: Jurkat cell line over-expressing human PD-1; PE-labeled PD-L1-Ig 20 nM final; read-out: Jurkat hPD1-PDL1 IC50. Put shortly: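 Binding of fluorescent PD-L1-Ig (20 nM final) to Jurkat-PD-1 cells was measured by automated imaging after 1 h, following a 2 h compound pre-treatment at 37° C.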
Regarding `C#CC[C@H](NC(=O)COCCOCCNC(=O)[C@H](CCCNC(=N)N)NC(=O)[C@@H]1CSCC(=O)N[C@@H](Cc2ccncc2)C(=O)N[C@@H](Cc2ccc(OCC(=O)O)cc2)C(=O)N[C@@H](CC(=O)O)C(=O)N[C@@H](Cc2c[nH]c3ccccc23)C(=O)N[C@@H](C(C)C)C(=O)N[C@@H](Cc2ccc(-c3ccccc3)cc2)C(=O)N[C@@H]([C@@H](C)CC)C(=O)N[C@@H](CCCN)C(=O)N[C@H](CC(C)C)C(=O)N[C@@H](CCN)C(=O)N[C@@H](CC(C)C)C(=O)N[C@@H](C(C)C)C(=O)N[C@@H]([C@@H](C)O)C(=O)N1)C(=O)NCCCCCCCCCCC(=O)O` [Compound 1209] ({CH2CO}-[4Pal]Y(Carboxymethyl)DWV[Bip]I[Orn][dL][Dab]LVTCR[AEEA][Pra][Aun]-OH; thioether N-14), the negative-log IC50 (pIC50) is 7.45.
As for `C#CC[C@H](NC(=O)COCCOCCNC(=O)[C@H](Cc1cnc[nH]1)NC(=O)[C@@H]1CSCC(=O)N[C@@H](Cc2ccncc2)C(=O)N[C@@H](Cc2ccc(OCC(=O)O)cc2)C(=O)N[C@@H](CC(=O)O)C(=O)N[C@@H](Cc2c[nH]c3ccccc23)C(=O)N[C@@H](C(C)C)C(=O)N[C@@H](Cc2ccc(-c3ccccc3)cc2)C(=O)N[C@@H]([C@@H](C)CC)C(=O)N[C@@H](CCCN)C(=O)N[C@H](CC(C)C)C(=O)N[C@@H](CCN)C(=O)N[C@@H](CC(C)C)C(=O)N[C@@H](C(C)C)C(=O)N[C@@H]([C@@H](C)O)C(=O)N1)C(=O)NCCCCCCCCCCC(=O)O` [Compound 1210] ({CH2CO}-[4Pal]Y(Carboxymethyl)DWV[Bip]I[Orn][dL][Dab]LVTCH[AEEA][Pra][Aun]-OH; thioether N-14), the pIC50 was 7.65.
On to `C#CC[C@H](NC(=O)COCCOCCNC(=O)[C@@H]1CSCC(=O)N[C@@H](Cc2ccncc2)C(=O)N[C@@H](Cc2ccc(OCC(=O)O)cc2)C(=O)N[C@@H](CC(=O)O)C(=O)N[C@@H](Cc2c[nH]c3ccccc23)C(=O)N[C@@H](C(C)C)C(=O)N[C@@H](Cc2ccc(-c3ccccc3)cc2)C(=O)N[C@@H]([C@@H](C)CC)C(=O)N[C@@H](CCCN)C(=O)N[C@H](CC(C)C)C(=O)N[C@@H](CCN)C(=O)N[C@@H](CC(C)C)C(=O)N[C@@H](C(C)C)C(=O)N[C@@H]([C@@H](C)O)C(=O)N1)C(=O)N[C@@H](CN)C(=O)NCCCCCCCCCCC(=O)O` [Compound 1211] ({CH2CO}-[4Pal]Y(Carboxymethyl)DWV[Bip]I[Orn][dL][Dab]LVTC[AEEA][Pra][Dap][Aun]-OH; thioether N-14), for which the pIC50 was 7.81.
The result for `C#CC[C@H](NC(=O)COCCOCCNC(=O)[C@@H]1CSCC(=O)N[C@@H](Cc2ccncc2)C(=O)N[C@@H](Cc2ccc(OCC(=O)O)cc2)C(=O)N[C@@H](CC(=O)O)C(=O)N[C@@H](Cc2c[nH]c3ccccc23)C(=O)N[C@@H](C(C)C)C(=O)N[C@@H](Cc2ccc(-c3ccccc3)cc2)C(=O)N[C@@H]([C@@H](C)CC)C(=O)N[C@@H](CCCN)C(=O)N[C@H](CC(C)C)C(=O)N[C@@H](CCN)C(=O)N[C@@H](CC(C)C)C(=O)N[C@@H](C(C)C)C(=O)N[C@@H]([C@@H](C)O)C(=O)N1)C(=O)N[C@@H](CCN)C(=O)NCCCCCCCCCCC(=O)O` [Compound 1212] ({CH2CO}-[4Pal]Y(Carboxymethyl)DWV[Bip]I[Orn][dL][Dab]LVTC[AEEA][Pra][Dab][Aun]-OH; thioether N-14) reads 7.48.
With `C#CC[C@H](NC(=O)COCCOCCNC(=O)[C@@H]1CSCC(=O)N[C@@H](Cc2ccncc2)C(=O)N[C@@H](Cc2ccc(OCC(=O)O)cc2)C(=O)N[C@@H](CC(=O)O)C(=O)N[C@@H](Cc2c[nH]c3ccccc23)C(=O)N[C@@H](C(C)C)C(=O)N[C@@H](Cc2ccc(-c3ccccc3)cc2)C(=O)N[C@@H]([C@@H](C)CC)C(=O)N[C@@H](CCCN)C(=O)N[C@H](CC(C)C)C(=O)N[C@@H](CCN)C(=O)N[C@@H](CC(C)C)C(=O)N[C@@H](C(C)C)C(=O)N[C@@H]([C@@H](C)O)C(=O)N1)C(=O)N[C@@H](CCCN)C(=O)NCCCCCCCCCCC(=O)O` [Compound 1213] ({CH2CO}-[4Pal]Y(Carboxymethyl)DWV[Bip]I[Orn][dL][Dab]LVTC[AEEA][Pra][Orn][Aun]-OH; thioether N-14), the pIC50 is 7.48.

Broadly, the pIC50 is the IC50 on a negative log10 scale, so that one unit is a factor of ten.
